Tested on: 253994-281-T-J1-PDC KRAS-mutant spheroids with HUVEC/MSC, viability
Experiment: Anticancer human tumor 253994-281-T-J1-PDC patient-derived colorectal carcinoma cell line growth inhibition [KRAS2]
Settings: for IC50: curve of first compound; for viability, T/C: stronger effect = lower value
Procedure, shortened: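 KRAS-mutant tumor cells were grown as spheroids with HUVEC endothelial cells and human MSCs as stroma. Targeted agents were tested alone and with KRAS pathway inhibitors. Doses started at or near clinical Cmax, or 10 microM, descending half-log.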

[1] = second compound 0.1 µM, first compound 0.0316 µM
[2] = second compound 0.1 µM, first compound 0.1 µM
[3] = second compound 0.1 µM, first compound 0.316 µM
[4] = second compound 0.1 µM, first compound 1 µM
[5] = second compound 0.1 µM, first compound 3.16 µM
[6] = second compound 0.1 µM, first compound 10 µM
[7] = second compound 0.316 µM, first compound 0.0316 µM
[8] = second compound 0.316 µM, first compound 0.1 µM
[9] = second compound 0.316 µM, first compound 0.316 µM
[10] = second compound 0.316 µM, first compound 1 µM
[11] = second compound 0.316 µM, first compound 3.16 µM
[12] = second compound 0.316 µM, first compound 10 µM
[13] = second compound 1 µM, first compound 0.0316 µM
[14] = second compound 1 µM, first compound 0.1 µM
[15] = second compound 1 µM, first compound 0.316 µM
[16] = second compound 1 µM, first compound 1 µM
[17] = second compound 1 µM, first compound 3.16 µM
[18] = second compound 1 µM, first compound 10 µM
[19] = second compound 3.16 µM, first compound 0.0316 µM
[20] = second compound 3.16 µM, first compound 0.1 µM
[21] = second compound 3.16 µM, first compound 0.316 µM
[22] = second compound 3.16 µM, first compound 1 µM
[23] = second compound 3.16 µM, first compound 3.16 µM
[24] = second compound 3.16 µM, first compound 10 µM
[25] = second compound 10 µM, first compound 0.0316 µM
[26] = second compound 10 µM, first compound 0.1 µM
[27] = second compound 10 µM, first compound 0.316 µM
[28] = second compound 10 µM, first compound 1 µM
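Also: spheroids exposed to agents for seven days before readout.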
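For viability, T/C in this document: percent of DMSO vehicle control viability.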

SMILES | IC50 (second compound 0.1 µM) | IC50 (second compound 0.316 µM) | IC50 (second compound 1 µM) | IC50 (second compound 3.16 µM) | viability, T/C [1] | viability, T/C [2] | viability, T/C [3] | viability, T/C [4] | viability, T/C [7] | viability, T/C [8] | viability, T/C [9] | viability, T/C [10] | viability, T/C [13] | viability, T/C [14] | viability, T/C [15] | viability, T/C [16] | viability, T/C [19] | viability, T/C [20] | viability, T/C [21] | viability, T/C [22] | other results
CC1OCC2(CCN(c3cnc(Sc4ccnc(N)c4Cl)c(N)n3)CC2)C1N (stereo not given) + C=CC(=O)N1CCN(c2nc(=O)n(-c3c(C)ccnc3C(C)C)c3nc(-c4c(O)cccc4F)c(F)cc23)C(C)C1 | 8.95 µM | 6.56 µM | > 10 µM | 9.85 µM | 89.8% | 87.4% | 81.8% | 82.3% | 89.5% | 88.3% | 89.3% | 70.6% | 84.2% | 90.5% | 77% | 82.7% | 80.5% | 74.9% | 75.6% | 72.4% | IC50 (second compound 10 µM): > 10 µM; viability, T/C [5]: 70.7%; viability, T/C [6]: 47.6%; viability, T/C [11]: 60.4%; viability, T/C [12]: 44.6%; viability, T/C [17]: 60.6%; viability, T/C [18]: 51.6%; viability, T/C [23]: 63.4%; viability, T/C [24]: 49.8%; viability, T/C [25]: 85.1%; viability, T/C [26]: 75.2%; viability, T/C [27]: 74%; viability, T/C [28]: 69.6%; viability, T/C (second compound 10 µM, first compound 3.16 µM): 57%; viability, T/C (second compound 10 µM, first compound 10 µM): 51.5%
CCN1CCN(Cc2ccc(Nc3ncc(F)c(-c4cc(F)c5nc(C)n(C(C)C)c5c4)n3)nc2)CC1 + CC1OCC2(CCN(c3cnc(Sc4ccnc(N)c4Cl)c(N)n3)CC2)C1N | 0.715 µM | 0.422 µM | 0.186 µM | 0.051 µM | 87.6% | 79.9% | 64.4% | 44.2% | 83.7% | 62.4% | 62.4% | 33% | 72.9% | 57.7% | 43.3% | 32.2% | 47.1% | 41.9% | 39% | 22.8% | IC50 (second compound 10 µM): 0.0122 µM; viability, T/C (second compound 0.1 µM, first compound 0.00316 µM): 93.1%; viability, T/C (second compound 0.1 µM, first compound 0.01 µM): 102%; viability, T/C (second compound 0.316 µM, first compound 0.00316 µM): 96%; viability, T/C (second compound 0.316 µM, first compound 0.01 µM): 90.6%; viability, T/C (second compound 1 µM, first compound 0.00316 µM): 77.8%; viability, T/C (second compound 1 µM, first compound 0.01 µM): 76%; viability, T/C (second compound 3.16 µM, first compound 0.00316 µM): 68.2%; viability, T/C (second compound 3.16 µM, first compound 0.01 µM): 76.6%; viability, T/C (second compound 10 µM, first compound 0.00316 µM): 57%; viability, T/C (second compound 10 µM, first compound 0.01 µM): 55.9%; viability, T/C [25]: 39.3%; viability, T/C [26]: 33%; viability, T/C [27]: 33%; viability, T/C [28]: 15%
COc1cc2nccc(Oc3ccc(NC(=O)C4(C(=O)Nc5ccc(F)cc5)CC4)cc3)c2cc1OC + C=CC(=O)N1CCN(c2nc(OCC3CCCN3C)nc3c2CCN(c2cccc4cccc(C)c24)C3)CC1CC#N | > 10 µM | > 10 µM | 7.14 µM | 0.166 µM | 101% | 101% | 80.4% | 79.5% | 97.8% | 99.5% | 89.6% | 97.6% | 97.1% | 96.5% | 84.8% | 92.2% | 62.7% | 65.5% | 34.6% | 20.4% | IC50 (second compound 0.0316 µM): > 10 µM; viability, T/C (second compound 0.0316 µM, first compound 0.0316 µM): 88.8%; viability, T/C (second compound 0.0316 µM, first compound 0.1 µM): 104%; viability, T/C (second compound 0.0316 µM, first compound 0.316 µM): 81.8%; viability, T/C (second compound 0.0316 µM, first compound 1 µM): 91.1%; viability, T/C (second compound 0.0316 µM, first compound 3.16 µM): 92.2%; viability, T/C (second compound 0.0316 µM, first compound 10 µM): 69.8%; viability, T/C [5]: 87.6%; viability, T/C [6]: 71.1%; viability, T/C [11]: 87.5%; viability, T/C [12]: 50.3%; viability, T/C [17]: 88.9%; viability, T/C [18]: 33.9%; viability, T/C [23]: 18.9%; viability, T/C [24]: 0.21%
